Data taken from US11730720B2, “ALK5 inhibitors” (THERAVANCE BIOPHARMA R&D IP, LLC, priority 2018, dated 2023).

Columns and labels:
[1] = system: TGF-β-stimulated SMAD3 phosphorylation in BEAS-2B cells; experiment: Cellular ALK5 potency assay, inhibition of TGF-β stimulated pSMAD3 formation in BEAS-2B cells; format: cell-based; conditions: Homo sapiens, inhibition of TGF-β (10 ng/mL) stimulated pSMAD3 formation, 1 hour compound incubation, read-out: BEAS2B pIC50 (converted)
How it was run: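 Phospho-SMAD3 was quantified by AlphaLISA in lysates of human lung epithelial BEAS-2B cells. Compound was added 1 h (37 °C, HEPES/BSA-supplemented HBSS) before a 30 min challenge with 10 ng/mL TGF-β. Values are pIC50 relative to stimulated cells without compound.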

[2] = target: T1, recombinant human ALK5 (TGF-βR1) protein (Homo sapiens, UniProt P36897); experiment: Biochemical ALK5 (TGF-βR1) assay to measure pKi (LANCE Ultra ULight kinase assay); conditions: apparent pKi, converted from pIC50 using the Cheng-Prusoff equation
T1 construct: purchased Life Technologies PR9075A
T1 sequence (P36897 34-503): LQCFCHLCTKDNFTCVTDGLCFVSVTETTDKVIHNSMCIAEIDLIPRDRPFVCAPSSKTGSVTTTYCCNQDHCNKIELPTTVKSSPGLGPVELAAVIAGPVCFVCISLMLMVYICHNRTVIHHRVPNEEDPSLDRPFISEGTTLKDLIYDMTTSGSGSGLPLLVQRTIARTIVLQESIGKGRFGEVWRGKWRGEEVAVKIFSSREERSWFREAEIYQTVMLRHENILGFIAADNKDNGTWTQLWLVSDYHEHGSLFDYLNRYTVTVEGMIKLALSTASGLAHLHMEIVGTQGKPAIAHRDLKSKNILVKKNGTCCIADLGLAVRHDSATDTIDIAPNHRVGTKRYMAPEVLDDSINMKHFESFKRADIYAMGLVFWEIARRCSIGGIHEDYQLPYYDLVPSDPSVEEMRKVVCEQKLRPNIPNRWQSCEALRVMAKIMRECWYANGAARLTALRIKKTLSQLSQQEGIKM
How it was run: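 TR-FRET kinase format: compound dose range 10 μM–25 pM equilibrated 60 min with human ALK5 and ULight-labelled topoisomerase 2α peptide in HEPES/MgCl2 buffer pH 7.5 with DTT. Reaction started with ATP (125 μM stock, 5× final), 60 min at 37° C, stopped with EDTA/Eu-anti-phospho antibody; pKi derived from pIC50 via Cheng-Prusoff.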

Row | Structure (SMILES) | Ki [2] | IC50 [1]
1 | COC(=O)c1cnc2ccc(-c3[nH]nnc3-c3ccccc3F)nc2c1 [Compound 12-1, methyl 6-(4-(2-fluorophenyl)-1H-1,2,3-triazol-5-yl)-1,5-naphthyridine-3-carboxylate] | 3.98 to 31.6 nM | 200 to 1260 nM
2 | COCc1cccc(-c2[nH]cnc2-c2ccc3ncc(NCCN4CCN(C(C)C)CC4)cc3n2)c1 [Compound 15-2, N-[2-(4-isopropoylpiperazin-1-yl)ethyl]-6-[5-[3-(methoxymethyl)phenyl]-1H-imidazol-4-yl]-1,5-naphthyridin-3-amine] | 3.98 to 31.6 nM | 200 to 1260 nM
3 | Fc1ccc(Cl)cc1-c1[nH]cnc1-c1ccc2ncc(N3CCCNCC3)cc2c1 [Compound 17-6, 6-[5-(5-chloro-2-fluoro-phenyl)-1H-imidazol-4-yl]-3-(1,4-diazepan-1-yl)quinoline] | 0.398 to 3.16 nM | 25.1 to 158 nM
4 | COCc1cccc(-c2n[nH]cc2-c2ccc3ncc(N4CCC(N(C)C)CC4)cc3n2)c1 [Compound 14-7, 1-[6-[3-[3-(methoxymethyl)phenyl]-1H-pyrazol-4-yl]-1,5-naphthyridin-3-yl]-N,N-dimethyl-piperidin-4-amine] | 3.98 to 31.6 nM | 25.1 to 158 nM
5 | N[C@@H]1CCCC[C@H]1n1cc(-c2cnc3ccc(-c4nc[nH]c4-c4ccc(F)c(F)c4)cc3c2)cn1 [Compound 23-3, (1R,2R)-2-(4-(6-(5-(3,4-difluorophenyl)-1H-imidazol-4-yl)quinolin-3-yl)-1H-pyrazol-1-yl)cyclohexan-1-amine] | 0.0398 to 0.316 nM | 25.1 to 158 nM
6 | CN(C)C1CCN(c2cnc3ccc(-c4nc[nH]c4-c4cc(Cl)ccc4F)nc3c2)CC1 [Compound 2-6, 1-(6-(5-(5-chloro-2-fluorophenyl)-1H-imidazol-4-yl)-1,5-naphthyridin-3-yl)-N,N-dimethylpiperidin-4-amine] | 0.0398 to 0.316 nM | 25.1 to 158 nM

The next lines start with results.

Row | Ki [2] | Structure (SMILES) | IC50 [1]
7 | 0.0398 to 0.316 nM | CNC1CCN(c2cnc3ccc(-c4c[nH]nc4-c4cc(Cl)c(F)cc4F)nc3c2)CC1 [Compound 6-23, 1-(6-(3-(5-chloro-2,4-difluorophenyl)-1H-pyrazol-4-yl)-1,5-naphthyridin-3-yl)-N-methylpiperidin-4-amine] | 25.1 to 158 nM
8 | 0.0398 to 0.316 nM | Fc1ccc(Cl)cc1-c1[nH]cnc1-c1ccc2ncc(-c3nc4n(n3)CCNC4)cc2c1 [Compound 17-13, 6-[5-(5-chloro-2-fluoro-phenyl)-1H-imidazol-4-yl]-3-(5,6,7,8-tetrahydro-[1,2,4]triazolo[1,5-a]pyrazin-2-yl)quinoline] | ≤ 20 nM
9 | ≤ 0.0316 nM | NCCn1cc(-c2cnc3ccc(-c4c[nH]nc4-c4cc(Cl)c(F)cc4F)nc3c2)cn1 [Compound 6-41, 2-[4-[6-[3-(5-chloro-2,4-difluoro-phenyl)-1H-pyrazol-4-yl]-1,5-naphthyridin-3-yl]pyrazol-1-yl]ethanamine] | 25.1 to 158 nM
10 | ≤ 0.0316 nM | CNCCn1cc(-c2cnc3ccc(-c4nc[nH]c4-c4ccc(F)c(F)c4)nc3c2)cn1 [Compound 9-3, 2-(4-(6-(5-(3,4-difluorophenyl)-1H-imidazol-4-yl)-1,5-naphthyridin-3-yl)-1H-pyrazol-1-yl)-N-methylethan-1-amine] | ≤ 20 nM
11 | 0.0398 to 0.316 nM | COCc1cccc(-c2n[nH]cc2-c2ccc3ncc(-c4cnn(CC5CNC5)c4)cc3n2)c1 [Compound 14-11, 7-[1-(azetidin-3-ylmethyl)pyrazol-4-yl]-2-[3-[3-(methoxymethyl)phenyl]-1H-pyrazol-4-yl]-1,5-naphthyridine] | 25.1 to 158 nM
12 | 0.0398 to 0.316 nM | Fc1ccc(Cl)cc1-c1n[nH]cc1-c1ccc2ncc(-c3nnn4c3NCCC4)cc2n1 [Compound 1-118, 2-[3-(5-chloro-2-fluoro-phenyl)-1H-pyrazol-4-yl]-7-(4,5,6,7-tetrahydrotriazolo[1,5-a]pyrimidin-3-yl)-1,5-naphthyridine] | ≤ 20 nM
